Test results reported in patent US11046798B2, “Phosphono-phosphate containing compounds and polymers” (The Procter & Gamble Company, priority 2017, dated 2021).
Where “and” joins values, the source holds several entries; their conditions need not be identical. Equal entries are not always repeated.

How the values were obtained:
[1] = Powder Stain Removal Model (PSRM)
From the text: The Powder Stain Removal Model (PSRM) is a screening technique where hydroxyapatite powder (HAP) is used as a substrate for stain accumulation. The purpose of this technique is to illustrate and quantify the stain removal properties of chemical agents used in oral care. Hydroxyapatite powder provides a large surface area to which tea chromogens adsorb. […] The magnitude of stain removal can then be quantified by image analysis. A trial of this model can be completed in three days. Steps involved in PSRM are described below.
Prepare large batch of tea stain HAP by stirring 10 g of HAP powder in 200 ml of filtered tea for 5 minutes. Divide into centrifuge tubes and centrifuge at 15,000 rpm for 15 mins. Wash pellet by adding in 25 ml of water, vortexing, centrifuging at 15,000 rpm for 15 mins, and pipet out liquid. Make sure pellet breaks up during vortexing. Repeat wash.
Place centrifuge tubes in convection oven (55-65° C.) overnight to dry stained HAP. Once dried, pool stained HAP together and grind to a fine powder with pestle and mortar.
Tube is vortexed for I minute to fully suspend HAP in treatment followed by centrifugation at 15,000 rpm for 15 mins. After centrifugation, supernatant is decanted and pellet redistributed by adding 25 ml of water, vortexing, centrifuging at 15,000 rpm for 15 mins, and decanting-making sure pellet breaks up during vortexing. The wash cycle is repeated one more time.
Vortex pellet in approximately 10 ml of water until fully suspended followed by filtering under vacuum onto a Millipore filter disk (Membrane Filters 4.5 μm, 47 mm Catalog #HAWP04700, Millipore Corporation, Bedford, Mass.). Prepare a control disk using=200 mg of untreated, stained HAP. Filter disks are then dried overnight in flat position and then laminated.
Whitelight system: HAP disk (untreated HAP control and HAP treatments) is placed in a stabilized sample holder. The color is measured using a digital camera camera having a lens equipped with a polarizer filter (Camera model no. CANON EOS 70D from Canon Inc., Melville, N.Y. with NIKON 55 mm micro-NIKKOR lens with adapter). The light system is provided by Dedo lights (model number DLH2) equipped with 150 watt, 24V bulbs model number (Xenophot model number HL X64640), positioned about 30 cm apart (measured from the center of the external circular surface of one of the glass lens through which the light exits to the other) and aimed at a 45 degree angle such that the light paths meet on the HAP disk. Image analysis is performed using Whitelight with Ultragrab, Optimas and Giant Imaging software.
Usual controls for a single polymer PSRM are water as a treatment followed by exposure to tea, and water without exposure to tea. Additionally, pyrophosphate and polyphosphate are run as internal controls. […]

[2] = Powder Stain Prevention Model (PSPM)
From the text: The Powder Stain Prevention Model (PSPM) is a screening technique where hydroxyapatite powder (HAP) is used as a substrate for stain accumulation. The general purpose of this technique is to illustrate and quantify the stain prevention ability or staining potential of chemical agents used in oral care. Hydroxyapatite powder provides a large surface area to which tea chromogens adsorb. Pretreatment of HAP with oral care actives, either in rinse or dentifrice form, results in different levels of stain accumulation depending upon the ability of the actives to block or enhance the binding of these chromogens onto HAP surface. The magnitude of stain can then be quantified by image analysis.
Tube is vortexed for 30 seconds to fully suspend HAP in treatment followed by centrifugation at 15,000 rpm for 15 mins. After centrifugation, supernatant is decanted and pellet redistributed by adding 25 ml of water, vortexing, centrifuging at 15,000 rpm for 15 mins, and decanting-making sure pellet breaks up during vortexing. The wash cycle is repeated two more times.
After final water wash, 20 ml of filtered tea (1 Lipton tea bag per 100 ml of hot water seeped for 5 minutes, filtered and used at 50° C.) is added to each pellet and vortexed for 30 seconds to fully suspend HAP in tea. Powder suspension is centrifuged at 15,000 rpm for 15 mins and decanted. About 25 ml of water is added to the tube, vortexed and then centrifuging at 15,000 rpm for 15 mins. The liquid is decanted and wash cycle is repeated 2 more times.
Vortex pellet in approximately 10 ml of water until fully suspended followed by filtering under vacuum onto a Millipore filter disk (Membrane Filters 4.5 μm, 47 mm Catalog #HAWP04700, Millipore Corporation, Bedford, Mass.). Prepare a control disk using. −200 mg of untreated, unstained HAP. Filter disks are then dried overnight in flat position and then laminated.
Whitelight system: HAP disk (untreated HAP control and HAP treatments) is placed in a stabilized sample holder. The color is measured using a digital camera having a lens equipped with a polarizer filter (Camera model no. CANON EOS 70D from Canon Inc., Melville, N.Y. with NIKON 55 mm micro-NIKKOR lens with adapter). The light system is provided by Dedo lights (model number DLH2) equipped with 150 watt, 24V bulbs model number (Xenophot model number HL X64640), positioned about 30 cm apart (measured from the center of the external circular surface of one of the glass lens through which the light exits to the other) and aimed at a 45 degree angle such that the light paths meet on the HAP disk. Image analysis is performed using Whitelight with Ultragrab, Optimas and Giant Imaging software.
Usual controls for a single polymer PSPM are water as a treatment followed by exposure to tea, and water without exposure to tea. […]

O=P(O)(O)OP(=O)(O)O [Pyrophosphate]
Delta L [1]: 14.2
PSRM (ΔL) [1]: 13.0-18
PSRM ΔL [1]: 12.4 and 13.5
Delta L [2]: 16.3
PSPM (ΔL) [2]: 12.2-16.0
PSPM ΔL [2]: 18.0 and 14.3
